Measured values published in ChEMBL document CHEMBL1140165, “Rotationally constrained 2,4-diamino-5,6-disubstituted pyrimidines: a new class of histamine H4 receptor antagonists with improved druglikeness and in vivo efficacy in pain and inflammation models” (J Med Chem, 2008).
Active and inactive are the calls of the source. No cut-off for these calls is given here.

Legend:
Histamine H4 receptor [1] = molecular target: T1, Histamine H4 receptor (Mus musculus, UniProt Q91ZY2); experiment: Antagonist activity at mouse histamine H4 receptor expressed in HEK293 cells assessed as inhibition of histamine-induced intracellular calcium elevation by FLIPR assay; assay type: functional, cell-based
T1 sequence (Q91ZY2 whole entry): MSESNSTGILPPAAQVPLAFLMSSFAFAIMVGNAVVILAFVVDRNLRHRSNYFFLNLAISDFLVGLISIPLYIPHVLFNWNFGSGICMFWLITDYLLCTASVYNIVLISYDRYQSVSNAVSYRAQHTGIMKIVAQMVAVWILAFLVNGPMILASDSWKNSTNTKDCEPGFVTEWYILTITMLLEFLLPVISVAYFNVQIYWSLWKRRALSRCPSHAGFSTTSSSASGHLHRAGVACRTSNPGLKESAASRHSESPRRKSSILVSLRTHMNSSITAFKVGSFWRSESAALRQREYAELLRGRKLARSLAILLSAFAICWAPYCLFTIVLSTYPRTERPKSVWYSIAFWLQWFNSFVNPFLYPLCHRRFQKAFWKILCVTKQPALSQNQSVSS

Liver microsomes [2] = experiment: Metabolic stability in human liver microsomes; assay type: ADME, Microsome
[3] = Selectivity ratio of Ki for human histamine H4 receptor to Ki for 5HT1D receptor
[4] = molecular target: Prostaglandin G/H synthase 1 (Homo sapiens) (UniProt P23219); experiment: Binding affinity at COX1
Chain of Prostaglandin G/H synthase 1 (Homo sapiens) (P23219 whole entry): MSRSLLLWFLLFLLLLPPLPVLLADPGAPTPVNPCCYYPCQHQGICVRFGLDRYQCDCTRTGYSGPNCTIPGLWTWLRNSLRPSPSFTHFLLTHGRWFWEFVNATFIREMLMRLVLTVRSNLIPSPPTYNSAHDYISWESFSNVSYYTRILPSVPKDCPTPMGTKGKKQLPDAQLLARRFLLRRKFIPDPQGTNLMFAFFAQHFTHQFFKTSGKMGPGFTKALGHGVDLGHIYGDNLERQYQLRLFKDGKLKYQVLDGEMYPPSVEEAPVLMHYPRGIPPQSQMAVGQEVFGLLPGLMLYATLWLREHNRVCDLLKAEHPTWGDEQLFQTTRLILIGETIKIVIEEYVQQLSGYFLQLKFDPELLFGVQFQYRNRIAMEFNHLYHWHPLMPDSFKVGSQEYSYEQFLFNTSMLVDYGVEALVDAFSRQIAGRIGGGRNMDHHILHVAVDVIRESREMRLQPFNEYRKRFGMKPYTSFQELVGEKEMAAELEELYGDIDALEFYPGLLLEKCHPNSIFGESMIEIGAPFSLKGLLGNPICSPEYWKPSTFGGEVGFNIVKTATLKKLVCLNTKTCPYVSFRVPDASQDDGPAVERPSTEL

Liver microsomes [5] = experiment: Metabolic stability in rat liver microsomes; assay type: ADME, Microsome
[6] = molecular target: Delta-type opioid receptor (Homo sapiens) (UniProt P41143); experiment: Binding affinity to delta opioid receptor
Chain of Delta-type opioid receptor (Homo sapiens) (P41143 whole entry): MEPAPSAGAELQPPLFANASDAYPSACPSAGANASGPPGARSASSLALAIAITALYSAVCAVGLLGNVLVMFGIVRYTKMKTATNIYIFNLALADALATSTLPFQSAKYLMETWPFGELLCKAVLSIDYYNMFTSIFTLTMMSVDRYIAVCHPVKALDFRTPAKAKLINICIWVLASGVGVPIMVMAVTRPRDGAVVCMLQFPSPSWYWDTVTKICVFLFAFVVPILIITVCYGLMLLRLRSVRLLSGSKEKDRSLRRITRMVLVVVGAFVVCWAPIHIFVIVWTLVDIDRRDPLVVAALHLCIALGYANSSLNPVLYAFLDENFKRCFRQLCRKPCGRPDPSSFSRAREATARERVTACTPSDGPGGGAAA

[7] = Protein binding in rat; assay type: ADME, organism-based; conditions: in vivo, read-out: PB (converted)
[8] = Selectivity ratio of Ki for human histamine H4 receptor to Ki for histamine H2 receptor
Mus musculus [9] = experiment: Inhibition of clobenpropit-induced itching in ip dosed CD1/ICR mouse assessed as blockade of scratching in hind paw for 25 mins pretreated 30 mins before clobenpropit challenge; assay type: functional
[10] = molecular target: Cannabinoid receptor 2 (Homo sapiens) (UniProt P34972); experiment: Binding affinity to CB2 receptor
Chain of Cannabinoid receptor 2 (Homo sapiens) (P34972 whole entry): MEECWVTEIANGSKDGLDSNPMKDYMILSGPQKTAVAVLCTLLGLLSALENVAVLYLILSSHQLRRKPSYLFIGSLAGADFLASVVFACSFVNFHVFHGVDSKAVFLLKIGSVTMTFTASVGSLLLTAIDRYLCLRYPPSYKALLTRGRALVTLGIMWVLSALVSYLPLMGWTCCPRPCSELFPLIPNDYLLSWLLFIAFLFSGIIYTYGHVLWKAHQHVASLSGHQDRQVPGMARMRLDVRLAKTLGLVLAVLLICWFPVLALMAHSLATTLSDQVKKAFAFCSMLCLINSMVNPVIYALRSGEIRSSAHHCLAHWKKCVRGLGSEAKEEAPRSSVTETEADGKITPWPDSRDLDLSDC

[11] = Selectivity ratio of Ki for human histamine H4 receptor to Ki for dopamine D2 receptor
[12] = Protein binding in human; assay type: ADME, organism-based; conditions: in vivo, read-out: PB (converted)
Homo sapiens = species: Homo sapiens; experiment: Selectivity ratio of Ki for human histamine H4 receptor to Ki for human histamine H3 receptor
[13] = Selectivity ratio of Ki for human histamine H4 receptor to Ki for 5HT2A receptor
BMMC = experiment: Blockade of histamine-induced morphological changes in BALB/c mouse BMMC by flow cytometry; assay type: functional, cell-based
[14] = molecular target: Kappa-type opioid receptor (Homo sapiens) (UniProt P41145); experiment: Binding affinity to kappa opioid receptor
Chain of Kappa-type opioid receptor (Homo sapiens) (P41145 whole entry): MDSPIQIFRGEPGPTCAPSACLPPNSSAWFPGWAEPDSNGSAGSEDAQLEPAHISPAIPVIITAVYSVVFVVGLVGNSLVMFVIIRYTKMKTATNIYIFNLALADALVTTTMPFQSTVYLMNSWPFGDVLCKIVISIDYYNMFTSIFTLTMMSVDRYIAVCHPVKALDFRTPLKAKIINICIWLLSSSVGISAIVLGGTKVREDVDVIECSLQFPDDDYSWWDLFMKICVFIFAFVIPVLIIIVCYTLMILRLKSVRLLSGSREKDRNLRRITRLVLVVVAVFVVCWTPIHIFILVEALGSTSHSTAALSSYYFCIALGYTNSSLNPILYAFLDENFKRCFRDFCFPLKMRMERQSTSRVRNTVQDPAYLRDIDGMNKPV

Mus musculus [15] = experiment: Antiinflammatory activity against ip dosed BALB/c mouse assessed as inhibition of zymosan-induced peritonitis after 2 hrs pretreated 30 mins before zymosan challenge; assay type: functional
[16] = molecular target: T2, Prostaglandin G/H synthase 2 (Homo sapiens) (UniProt P35354); experiment: Binding affinity at COX2
T2 sequence (whole entry): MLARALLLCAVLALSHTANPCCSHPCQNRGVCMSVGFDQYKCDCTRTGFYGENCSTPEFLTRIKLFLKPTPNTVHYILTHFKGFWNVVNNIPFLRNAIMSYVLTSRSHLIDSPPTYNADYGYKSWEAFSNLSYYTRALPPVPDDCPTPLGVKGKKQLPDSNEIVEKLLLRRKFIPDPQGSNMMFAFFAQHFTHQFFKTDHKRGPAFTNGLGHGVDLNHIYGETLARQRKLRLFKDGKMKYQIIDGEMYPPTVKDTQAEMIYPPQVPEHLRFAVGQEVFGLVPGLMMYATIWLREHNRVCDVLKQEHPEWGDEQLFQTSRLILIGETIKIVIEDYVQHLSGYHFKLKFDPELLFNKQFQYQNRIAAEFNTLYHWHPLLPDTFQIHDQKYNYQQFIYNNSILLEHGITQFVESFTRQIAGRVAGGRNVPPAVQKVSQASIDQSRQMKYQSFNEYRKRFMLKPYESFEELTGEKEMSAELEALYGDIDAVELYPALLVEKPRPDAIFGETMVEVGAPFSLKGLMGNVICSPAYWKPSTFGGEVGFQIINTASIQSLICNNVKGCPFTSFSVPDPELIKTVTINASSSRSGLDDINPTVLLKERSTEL

[17] = Selectivity ratio of Ki for human histamine H4 receptor to Ki for histamine H1 receptor
Histamine H4 receptor [18] = molecular target: T3, Histamine H4 receptor (Homo sapiens, UniProt Q9H3N8); conditions: HEK293
T3 sequence (Q9H3N8 whole entry): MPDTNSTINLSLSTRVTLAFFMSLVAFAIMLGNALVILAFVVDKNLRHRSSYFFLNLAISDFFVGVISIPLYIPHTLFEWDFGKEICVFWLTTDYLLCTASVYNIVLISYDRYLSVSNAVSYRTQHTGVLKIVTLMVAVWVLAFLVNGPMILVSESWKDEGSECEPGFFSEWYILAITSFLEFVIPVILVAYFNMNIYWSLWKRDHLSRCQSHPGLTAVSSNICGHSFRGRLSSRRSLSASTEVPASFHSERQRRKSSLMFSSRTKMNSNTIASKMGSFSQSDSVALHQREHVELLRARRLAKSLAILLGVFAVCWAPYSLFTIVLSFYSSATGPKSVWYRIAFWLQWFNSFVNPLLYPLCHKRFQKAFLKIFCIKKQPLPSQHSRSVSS

Cytochrome P450 3A4 = Cytochrome P450 3A4 (Homo sapiens, UniProt P08684); experiment: Inhibition of CYP3A4 upto 10 uM; assay type: ADME
Chain of Cytochrome P450 3A4 (P08684 whole entry): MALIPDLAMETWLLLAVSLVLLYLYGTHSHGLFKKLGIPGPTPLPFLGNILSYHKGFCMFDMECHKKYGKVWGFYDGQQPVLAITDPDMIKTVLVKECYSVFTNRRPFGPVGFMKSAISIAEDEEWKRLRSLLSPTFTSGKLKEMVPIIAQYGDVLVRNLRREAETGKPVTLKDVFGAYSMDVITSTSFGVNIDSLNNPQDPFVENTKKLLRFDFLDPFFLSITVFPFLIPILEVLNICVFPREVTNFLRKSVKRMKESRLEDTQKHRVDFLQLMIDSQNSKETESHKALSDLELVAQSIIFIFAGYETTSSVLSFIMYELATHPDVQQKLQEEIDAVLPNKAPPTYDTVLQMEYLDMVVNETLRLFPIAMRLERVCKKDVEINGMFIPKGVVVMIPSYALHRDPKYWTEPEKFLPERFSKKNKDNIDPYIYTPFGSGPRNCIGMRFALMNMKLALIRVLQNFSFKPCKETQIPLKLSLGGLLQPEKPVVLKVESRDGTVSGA

[19] = molecular target: Mu-type opioid receptor (Homo sapiens) (UniProt P35372); experiment: Binding affinity to mu opioid receptor
Chain of Mu-type opioid receptor (Homo sapiens) (P35372 whole entry): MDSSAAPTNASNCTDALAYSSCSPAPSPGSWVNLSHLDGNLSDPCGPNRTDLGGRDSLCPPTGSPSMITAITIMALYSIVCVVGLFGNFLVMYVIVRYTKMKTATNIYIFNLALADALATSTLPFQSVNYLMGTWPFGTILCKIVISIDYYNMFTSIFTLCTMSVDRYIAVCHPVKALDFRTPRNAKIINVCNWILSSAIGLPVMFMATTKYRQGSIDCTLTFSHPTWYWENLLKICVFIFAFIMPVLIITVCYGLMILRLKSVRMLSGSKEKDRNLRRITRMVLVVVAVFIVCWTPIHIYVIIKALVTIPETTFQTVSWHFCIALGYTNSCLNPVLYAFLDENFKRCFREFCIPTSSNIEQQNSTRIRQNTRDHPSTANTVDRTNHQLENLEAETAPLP

Rattus norvegicus [20] = experiment: Antinociceptive efficacy in spinal nerve ligated Sprague-Dawley rat assessed as reduction of neuropathic pain in left side paw at 300 umol/kg, ip administered 30 mins before testing relative to control; assay type: functional
Rattus norvegicus [21] = experiment: Antinociceptive efficacy in rat assessed as inhibition of carrageenan-induced inflammatory pain in paw at 100 umol/kg, ip after 30 mins by hotbox assay relative to control; assay type: functional
[22] = Ratio of drug level in brain to plasma in rat at 10 mg/kg, iv after 30 mins; assay type: ADME, organism-based; set-up: dose 10 mg/kg, route intravenous
Histamine H4 receptor [23] = molecular target: T4, Histamine H4 receptor (Rattus norvegicus, UniProt Q91ZY1); experiment: Antagonist activity at rat histamine H4 receptor expressed in HEK293 cells assessed as inhibition of histamine-induced intracellular calcium elevation by FLIPR assay; assay type: functional, cell-based
T4 sequence (Q91ZY1 whole entry): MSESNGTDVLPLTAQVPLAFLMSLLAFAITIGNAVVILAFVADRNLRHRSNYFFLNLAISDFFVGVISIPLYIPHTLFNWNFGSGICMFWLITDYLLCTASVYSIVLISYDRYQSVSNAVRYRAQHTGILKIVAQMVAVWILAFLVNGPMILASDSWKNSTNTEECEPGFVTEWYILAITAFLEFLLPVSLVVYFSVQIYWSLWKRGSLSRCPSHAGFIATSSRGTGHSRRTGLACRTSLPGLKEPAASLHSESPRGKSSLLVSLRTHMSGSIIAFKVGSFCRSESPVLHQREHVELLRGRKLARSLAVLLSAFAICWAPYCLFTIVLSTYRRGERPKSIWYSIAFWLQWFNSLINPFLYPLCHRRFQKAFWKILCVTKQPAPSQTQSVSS

Rattus norvegicus [24] = experiment: Antinociceptive efficacy in spinal nerve ligated Sprague-Dawley rat assessed as reduction of neuropathic pain in left side paw at 100 umol/kg, ip administered 30 mins before testing relative to control; assay type: functional
Histamine H4 receptor [25] = molecular target: T3, Histamine H4 receptor; experiment: Displacement of [3H]histamine from human histamine H4 receptor expressed in HEK293 cells; assay type: cell-based; conditions: read-out: Ki
Histamine H4 receptor [26] = molecular target: T4, Histamine H4 receptor; experiment: Displacement of [3H]histamine from rat histamine H4 receptor expressed in HEK293 cells; assay type: cell-based
[27] = Selectivity ratio of Ki for human histamine H4 receptor to Ki for adrenergic alpha1 receptor
[28] = molecular target: Cannabinoid receptor 1 (Homo sapiens) (UniProt P21554); experiment: Binding affinity to CB1 receptor
Chain of Cannabinoid receptor 1 (Homo sapiens) (P21554 whole entry): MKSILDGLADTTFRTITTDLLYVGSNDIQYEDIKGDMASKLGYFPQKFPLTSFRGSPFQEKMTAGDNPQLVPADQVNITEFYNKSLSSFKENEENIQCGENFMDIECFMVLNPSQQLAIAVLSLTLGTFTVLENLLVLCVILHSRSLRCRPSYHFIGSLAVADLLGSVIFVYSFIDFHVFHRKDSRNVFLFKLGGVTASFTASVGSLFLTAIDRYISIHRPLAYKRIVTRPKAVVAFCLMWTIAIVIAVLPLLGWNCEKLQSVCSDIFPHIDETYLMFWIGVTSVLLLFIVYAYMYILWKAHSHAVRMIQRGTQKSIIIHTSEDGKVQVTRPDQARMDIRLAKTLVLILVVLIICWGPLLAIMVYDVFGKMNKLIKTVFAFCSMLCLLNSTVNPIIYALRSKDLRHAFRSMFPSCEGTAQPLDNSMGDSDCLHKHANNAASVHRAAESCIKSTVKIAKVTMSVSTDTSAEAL

[29] = Selectivity ratio of Ki for human histamine H4 receptor to Ki for 5HT1A receptor
Cytochrome P450 2C9 = Cytochrome P450 2C9 (Homo sapiens, UniProt P11712); experiment: Inhibition of CYP2C9 upto 10 uM; assay type: ADME
Chain of Cytochrome P450 2C9 (P11712 whole entry): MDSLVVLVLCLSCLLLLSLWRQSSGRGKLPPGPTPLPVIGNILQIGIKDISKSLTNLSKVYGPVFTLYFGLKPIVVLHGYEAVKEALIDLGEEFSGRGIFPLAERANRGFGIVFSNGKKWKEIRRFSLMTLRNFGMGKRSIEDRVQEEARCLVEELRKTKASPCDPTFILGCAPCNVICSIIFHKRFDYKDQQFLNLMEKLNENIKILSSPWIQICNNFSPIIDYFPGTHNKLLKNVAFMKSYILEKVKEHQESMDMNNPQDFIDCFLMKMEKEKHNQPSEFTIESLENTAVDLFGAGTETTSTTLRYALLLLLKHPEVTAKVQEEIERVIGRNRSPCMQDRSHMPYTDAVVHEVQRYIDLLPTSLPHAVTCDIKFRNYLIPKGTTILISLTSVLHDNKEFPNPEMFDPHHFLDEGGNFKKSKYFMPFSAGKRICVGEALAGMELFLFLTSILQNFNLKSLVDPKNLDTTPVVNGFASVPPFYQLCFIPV

[30] = Metabolic stability in mouse liver microsomes; assay type: ADME, Microsome
Cytochrome P450 2D6 = Cytochrome P450 2D6 (Homo sapiens, UniProt P10635); experiment: Inhibition of CYP2D6 upto 10 uM; assay type: ADME
Chain of Cytochrome P450 2D6 (P10635 whole entry): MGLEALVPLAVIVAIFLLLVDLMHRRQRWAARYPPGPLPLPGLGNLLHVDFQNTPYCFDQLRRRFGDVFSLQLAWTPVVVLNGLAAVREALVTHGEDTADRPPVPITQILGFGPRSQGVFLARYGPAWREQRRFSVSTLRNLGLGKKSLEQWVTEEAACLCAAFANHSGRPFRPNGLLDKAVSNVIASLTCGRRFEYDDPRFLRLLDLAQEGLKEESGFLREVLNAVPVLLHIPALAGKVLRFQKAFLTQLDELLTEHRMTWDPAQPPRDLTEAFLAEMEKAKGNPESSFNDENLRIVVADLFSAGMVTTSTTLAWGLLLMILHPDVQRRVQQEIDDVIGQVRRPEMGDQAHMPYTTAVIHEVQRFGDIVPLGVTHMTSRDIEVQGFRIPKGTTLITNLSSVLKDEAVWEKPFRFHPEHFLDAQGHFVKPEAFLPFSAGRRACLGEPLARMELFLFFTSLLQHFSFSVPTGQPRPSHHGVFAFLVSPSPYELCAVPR

Rattus norvegicus [31] = experiment: Antinociceptive efficacy in spinal nerve ligated Sprague-Dawley rat assessed as reduction of neuropathic pain in left side paw at 500 umol/kg, ip administered 30 mins before testing relative to control; assay type: functional
Rattus norvegicus [32] = experiment: Antinociceptive efficacy in ip dosed rat assessed as inhibition of carrageenan-induced inflammatory pain in paw after 30 mins by hotbox assay relative to control; assay type: functional

CNC1CN(c2nc(N)nc3c2CCCc2ccccc2-3)C1
EC50 (Histamine H4 receptor [1]): 9.12 nM
Stability (Liver microsomes [2]): 20 pmol/min/mg
Ratio Ki [3]: 310
Activity [4]: inactive
Stability (Liver microsomes [5]): 165 pmol/min/mg
Activity [6]: inactive
fraction unbound [7]: 0.56
Ratio Ki [8]: > 860
ED50 (Mus musculus [9]): 25 µmol/kg
Activity [10]: inactive
Ratio Ki [11]: 123
fraction unbound [12]: 0.52
Ratio Ki (Homo sapiens): 93
Ratio Ki [13]: 235
Activity (BMMC): Active
Activity [14]: inactive
ED50 (Mus musculus [15]): 17 µmol/kg
Activity [16]: inactive
Ratio Ki [17]: > 610
pKb (Histamine H4 receptor [18]): 8.05
Activity (Cytochrome P450 3A4): Not Active
Activity [19]: inactive
Efficacy (Rattus norvegicus [20]): 78%
Efficacy (Rattus norvegicus [21]): 39%
Kp at 0.5 h [22]: 5.8
EC50 (Histamine H4 receptor [23]): 9.33 nM
Efficacy (Rattus norvegicus [24]): 36%
Ki (Histamine H4 receptor [25]): 11 nM
Ki (Histamine H4 receptor [26]): 3.63 nM
Ratio Ki [27]: 215
Activity [28]: inactive
Ratio Ki [29]: 940
Activity (Cytochrome P450 2C9): Not Active
Stability [30]: 38.8 pmol/min/mg
Activity (Cytochrome P450 2D6): Not Active

NCC1(CC(=O)O)CCCCC1 [GABAPENTIN]
Efficacy (Rattus norvegicus [31]): 62%

O=C(O)Cc1ccccc1Nc1c(Cl)cccc1Cl [DICLOFENAC]
Efficacy (Rattus norvegicus [32]): 91%
